Results: patent publication US7524836B2, “Nitrooxyderivative steroidal compounds” (Nicox S.A., priority 2001, dated 2009)
Read-outs that look alike come from different tables or passages of the source. Each block holds one molecule with its values, some of them ahead of it.

What was measured:
[1] = Test 4: inhibition of radical production from DPPH; conditions: tested substance 10^-4 M (100 μM) in methanol, 30 minutes, absorbance at 517 nm
Experimental: [drawing 21] • wherein test 4 is the following: it is an analytical determination carried out by adding portions of methanol solutions of the precursor of B or B1 at a 10^−4 M concentration, to a methanol solution of DPPH (2,2-diphenyl-1-picryl hydrazyl-free radical); after having maintained the solution at room temperature away from light for 30 minutes, it is read the absorbance at the wave length of 517 nm of the test solution and of a solution containing only DPPH in the same amount as in the test solution; and then the inhibition induced by the precursor towards radical production by DPPH is calculated as a percentage by means of the following formula: (1−AS/AC)×100 wherein AS and AC are respectively the absorbance values of the solution containing the test compound+DPPH and that of the solution containing only DPPH; the acceptance criterium of the compounds according to this test is the following: test 4 is met by B or B1 precursor compounds if the inhibition percentage as above defined is higher than or equal to 50%;
Test 4 is a […] test which affords to establish whether the orecursors of B or B1 inhibit the production of radicals from DPPH (2,2-diphenyl-1-picryl-hydrazyl) (M. S. Nenseter et Al., Atheroscler. Thromb. 15, 1338-1344, 1995). 100 μM solutions in methanol of the tested substances are prepared, and an aliquot of each of said solutions is added to a DPPH solution in methanol […]. After having stored the solutions at room temperature away from light for 30 minutes, their absorbances are read at the wave length of 517 nm, together with that of the corresponding DPPH solution at the same concentration. The absorbance decrease with respect to that of the solution of DPPH at the same concentration of the test solutions is determined. The effectiveness of the tested compound in inhibiting formation of radicals by DPPH is expressed by the following formula: (1−AS/AC)×100 wherein AS and AC are respectively the absorbance values of the solution containing the test compound together with DPPH and of the solution containing only DPPH; the compounds precursor of B or B1 meet test 4 when the inhibition percentage of radical production from DPPH, expressed as a percentage according to the above equation, is higher than or equal co 50% at the indicated concentration (10^−4 M).
The method is based on a colorimetric test in which DPPH (2,2-diphenyl-1-picryl-hydrazyl) is used as the compound-forming radicals (M. S. Nenseter et Al., Atheroscler. Thromb. 15, 1338-1344, 1995).
Solutions in methanol of the tested substances at a final concentration 100 μM are initially prepared. 0.1 ml of each of these solutions are added to aliquots of 1 ml of a methanol solution […] of DPPH and then the final volume is brought to 1.5 ml. After having stored the solutions at room temperature away from light for 30 minutes, the absorbance at the wave length of […] is read. It is determined the absorbance decrease with respect to the absorbance of a solution containing the same concentration of DPPH.
The efficacy of the test compound to inhibit the production of radicals, otherwise said antiradical activity, is expressed by the following formula: (1−AS/AC)×100 wherein AS and AC are, respectively, the absorbance values of the solution containing the test compound together+DPPH and of the solution containing only DPPH. […]

[2] = Test 5: inhibition of radical production from Fe^II (desoxyribose degradation); conditions: 10^-4 M methanolic solution, 37° C. for one hour, absorbance at 532 nm
Experimental: […]
Test 5 is a […] test wherein 0.1 ml aliquots of 10^−4 M methanolic solutions of the tested products are added to test tubes containing a solution formed by 0.2 ml of 2 mM desoxyribose, 0.4 ml of phosphate buffer pH 7.4 100 mM and 0.1 ml of 1 mM Fe^II(NH4)2(SO4)2 in 2 mM HCl. […] A pink coloration is developed the intensity of which is proportional to the quantity of desoxyribose undergone to radical oxidative degradation. The solutions are cooled at room temperature and their absorbances are read at 532 nm against the blank. The inhibition induced by the precursor of B or B1 or C=-TC-Y—H in comparison with the radical production by Fe^II is determined by means of the following formula: (1−AS/AC)×100 wherein AS and AC are respectively the absorbance values of the solution containing the tested compound+the iron salt and that of the solution containing only the iron salt, the compound meets test 5 when the inhibition percentage of radical production as above defined from the precursor of B or B1 or C=-TC-Y—H is higher than or equal to 50%. […]

[3] = test system: rats treated or not treated with L-NAME; set-up: species or system rat (Long Evans); conditions: rat, in vivo, ip; for GPT var. %: 100 mg/kg
Experimental: In those groups of rats treated, respectively, with ursodesoxycholic acid and chenodeoxycholic acid and thereof corresponding compounds according to the present invention, GPT is determined.
At the end of the four weeks access to water is prevented and after 24 hours the animals are sacrificed.
1st group receiving L-NAME (group d-comparative) administered at the same time with 100 mg/Kg (0.25 mmoles/Kg) of ursodesoxycholic acid+49.5 mg/Kg (0.25 mmoles/Kg) of ferulic acid in the same above carrier, • c. 2nd group receiving L-NAME (group e) administered with 175 mg/Kg (0.25 mmoles/Kg) of the ursodesoxycholic derivative according to the invention (ref. ex. 1) in the same above carrier.

[4] = test system: rats treated or not treated with L-NAME; conditions: rat, in vivo, ip
Experimental: The endothelial dysfunction is evaluated by determining the damage the hepatic damage (GPT increase), and the vascular endothelium or cardiovascular damage (blood hypertension) induced by L-NAME admirnistration.
The animals (Long Evans rats, average weight 350-450 g) are divided n groups as herein below described. The group receiving L-NAME is treated for 4 weeks with said compound dissolved at the concentration of 400 mg/litre in drinking water. The following groups (No. 10 animals for group) are constituted:
• 1° group: treatment: only carrier (physiologic solution), • 2° group: trealtmrent: carrier +L-NAME, B) Groups Treated with the Drug: • 3° group: treatment: carrier+drug, • 4° group: treatment: carrier+drug+L-NAME.
Each drug is administered by intraperitoneal route once a day for 4 weeks.
Four hours after the last administration the blood-pressure is determined.
Damage to the vascular endothelium is determined, as said by the cardiovascular effects induced by L-NAME (increase of the blood pressure).
In this experiment vascular tolerability, i.e. the rise in blood pressure (vascular damage) was determined in the animals of groups b and c and expressed as percentages to that of the control group a, assumed to be 100%.

Structure (SMILES): O=C(O)C1CSCN1 (stereo not drawn) [4-thiazolidin carboxylic acid]
% inhibition radical production from DPPH ([1]; 100 µM): does not inhibit | % Radical Inhibition from Fe^II [2]: 100%

Structure (SMILES): N[C@@H](CS)C(=O)O [Cysteine]
% inhibition radical production from DPPH ([1]; 100 µM): 100%

Structure (SMILES): COc1cc(/C=C/C(=O)OCCCCO[N+](=O)[O-])ccc1OC(=O)CC[C@@H](C)[C@H]1CCC2C3C(CC[C@@]21C)[C@@]1(C)CC[C@@H](O)C[C@H]1C[C@@H]3O (stereo partly drawn) [Example 1, 3-[4-[(3α,5β,7β)-3,7-dihydroxycolan-24-oiloxy]-3-methoxyphenyl]-2-propenoic acid 4-nitroxybutyl ester]
GPT var. % [3]: 103% | GPT variation % ([3]; 175 mg/kg): 123%

Structure (SMILES): COc1cc(/C=C/C(=O)OCCCCO[N+](=O)[O-])ccc1OC(=O)CC[C@@H](C)[C@H]1CCC2C3C(CC[C@@]21C)[C@@]1(C)CC[C@@H](O)C[C@H]1C[C@H]3O (stereo partly drawn) [Example 2, 3-[4-[(3α,5β,7α)-3,7-dihydroxycolan-24-oiloxy]-3-methoxyphenyl]-2-propenoic acid 4-nitroxybutyl ester]
GPT var. % [3]: 105%

Structure (SMILES): CC(=O)N[C@@H](CSC(=O)CCCO[N+](=O)[O-])C(=O)OCC(=O)[C@@]1(O)CC[C@H]2[C@@H]3CCC4=CC(=O)C=C[C@]4(C)[C@H]3[C@@H](O)C[C@@]21C [Example 3, (11β)-11,17-dihydroxy-21[N-acetyl-S-(4-nitroxybutyroyl)cysteinyloxy]-pregn-1,4-diene-3,20-dione]
Blood pressure variation % ([4]; 10 mg/kg): 102%

Structure (SMILES): CC(=O)N[C@@H](CSC(=O)CCCO[N+](=O)[O-])C(=O)OCC(=O)[C@@]1(O)CC[C@H]2[C@@H]3CCC4=CC(=O)CC[C@]4(C)[C@H]3[C@@H](O)C[C@@]21C [Example 4, (11β)-11,17-Dihydroxy-21[N-acetyl-S-(4-nitroxybutyroyl)cysteinyloxy]-pregn-4-ene-3,20-dione]
Blood pressure variation % ([4]; 10 mg/kg): 98%

Structure (SMILES): CC(=O)N[C@@H](CSC(=O)CCCO[N+](=O)[O-])C(=O)OCC(=O)[C@@]1(O)[C@H](C)C[C@H]2[C@@H]3CCC4=CC(=O)C=C[C@]4(C)[C@@]3(F)[C@@H](O)C[C@@]21C [Example 5, (11β,16α)-9-Fluoro-11,17-dihydroxy-21[N-acetyl-S-(4-nitroxybutyroyl)cysteinyloxy]-16-methylpregn-1,4-diene-3,20-dione]
Blood pressure variation % ([4]; 5 mg/kg): 103% | Blood pressure variation % ([4]; 42.5 mg/kg): 125%

Structure (SMILES): COc1cc(/C=C/C(=O)O)ccc1O [Ferulic acid]
% inhibition radical production from DPPH ([1]; 100 µM): 100%

Structure (SMILES): O=C(O)c1cc(O)ccc1O [Gentisic acid]
% inhibition radical production from DPPH ([1]; 100 µM): 80%

Structure (SMILES): CC(=O)N[C@@H](CS)C(=O)O [N-acetylcysteine]
% inhibition radical production from DPPH [1]: 100%

GPT var. % [3]: 150%
Structure (SMILES): C[C@H](CCC(=O)O)[C@H]1CC[C@H]2[C@@H]3[C@H](O)C[C@@H]4C[C@H](O)CC[C@]4(C)[C@H]3CC[C@]12C [chenodeoxycholic acid]

Structure (SMILES): C[C@@H]1C[C@H]2[C@@H]3CCC4=CC(=O)C=C[C@]4(C)[C@@]3(F)[C@@H](O)C[C@]2(C)[C@@]1(O)C(=O)CO [dexamethasone]
Blood pressure variation % ([4]; 5 mg/kg): 125%

Structure (SMILES): C[C@]12CCC(=O)C=C1CC[C@@H]1[C@@H]2[C@@H](O)C[C@@]2(C)[C@H]1CC[C@]2(O)C(=O)CO [hydrocortisone]
Blood pressure variation % ([4]; 10 mg/kg): 115%

Structure (SMILES): C[C@]12C=CC(=O)C=C1CC[C@@H]1[C@@H]2[C@@H](O)C[C@@]2(C)[C@H]1CC[C@]2(O)C(=O)CO [prednisolone]
Blood pressure variation % ([4]; 10 mg/kg): 119%

GPT var. % [3]: 130%
Structure (SMILES): C[C@H](CCC(=O)O)[C@H]1CC[C@H]2[C@@H]3[C@@H](O)C[C@@H]4C[C@H](O)CC[C@]4(C)[C@H]3CC[C@]12C [ursodesoxycholic acid]
